Experimental data: PMC11478334, “Quaternized Curcumin Derivative—Synthesis, Physicochemical Characteristics, and Photocytotoxicity, Including Antibacterial Activity after Irradiation with Blue Light” (Molecules, 2024)

Tests used:
[1] = Aggregation studies by UV-vis serial dilution; type: physicochemical; conditions: in DMF
Procedure: The aggregation properties of the studied compounds were evaluated using statistical analysis of the UV–vis absorption spectra during serial dilution. […] This can be associated with the presence of a positive charge that prevents aggregation due to the repulsion of the same charges. […] According to the literature, DMSO can permeate into curcumin clusters and stabilize the non-aggregated molecules due to solvation.
The aggregation studies were performed at ambient temperature. Known amounts of 2, 3, and curcumin as a reference in volumetric flasks were dissolved in DMSO and DMF and left to stir overnight. Then, the solutions were diluted appropriately to achieve concentrations in the range between 1.5 × 10^−6 mol/dm^3 and 5.5 × 10^−5 mol/dm^3. The samples were then moved into quartz cuvettes (l = 10 mm, Hellma, Müllheim, Germany), and their spectra were recorded using a Shimadzu U-1900 spectrophotometer (Shimadzu, Kyoto, Japan). The recorded spectra and numerical data were then used for the determination of the dependence between the maximum peak absorption and the sample concentration according to the A = f(c) function, used further for statistical verification of the Lambert–Beer law.

[2] = UV-vis absorption spectra (spectral properties); type: physicochemical
Excerpt: In the UV–vis spectra of the studied curcumin derivatives 2 and 3, typical absorption bands in the 350–550 nm range were noted (Figure 7). The absorption maxima of 2 and its quaternized derivative 3 were located close to 500 nm in both DMSO and DMF (for 2, λmax 496 nm in DMF and 502 nm in DMSO; for 3, λmax 489 nm in DMF and 495 nm in DMSO), whereas for the unsubstituted curcumin, the absorption maximum was located at 430 nm in DMF and 436 nm in DMSO. This implies that the presence of the BF2 moiety induces a strong bathochromic shift, as reported before. Further conversion of non-ionic 2-(morpholin-4-yl)ethoxy substituents present in 2 into quaternary ammonium cations present in 3 2-(N-methylmorpholinium)ethoxy groups induced a slight […] hypsochromic shift in both solvents. The strong absorption band originates mainly from π-π* electronic transition. To a lesser extent, such peaks come from the n-π* transition, although the importance of this crossing remains unclear.

Aliivibrio fischeri = test: Microtox acute toxicity test; type: cell-based; conditions: for acute toxicity / ecotoxicity verdict: tested at 1, 10 and 100 µM
Excerpt: All studied compounds were subjected to a Microtox acute toxicity test. The test is based on bioluminescent Aliivibrio fischeri bacteria, which are very sensitive to the presence of toxic substances. Changes in the toxicity of the environment surrounding the bacterium influence its respiratory processes and translate into the emitted bioluminescence intensity. Therefore, in contact with a toxic substance at a specific concentration, a linear decrease in luminescence is observed. Dimethylsulfoxide was used as a solubilizer of studied compounds in amounts not exceeding 1% v/v. To determine the effect of the solvent alone, 1% DMSO solution in water was also tested.
The acute toxicity of the tested curcumionoids was investigated on a Modern Water Microtox Model 500 apparatus equipped with Modern Water MicrotoxOmni 4.2 software, according to the 81.9% screening test procedure provided by the manufacturer (Modern Water, London, UK). All the reagents and solutions (Microtox Acute Reagent, Microtox Diluent, and Microtox Osmotic Adjusting Solution) were purchased from Tigret (Warsaw, Poland). Solutions of the tested compounds were prepared using DMSO and deionized water. […] Each compound was tested at three final concentrations (1 µM, 10 µM, and 100 µM) and at two time points: 5 min and 15 min. The change in the bacterial bioluminescence was monitored after the addition of the sample solution and compared to the negative control.

Row | Compound | aggregation [1] | absorption maximum λmax ([2]; in DMF) [nm] | absorption maximum λmax ([2]; in DMSO) [nm] | decrease in A. fischeri bioluminescence (Aliivibrio fischeri; 100 µM) [%] | effect on A. fischeri bioluminescence (Aliivibrio fischeri; lower concentrations (below 100 µM)) | decrease in A. fischeri bioluminescence (Aliivibrio fischeri; 10 µM, after 5 min exposure) [%] | acute toxicity / ecotoxicity verdict (Aliivibrio fischeri) | decrease in A. fischeri bioluminescence (Aliivibrio fischeri; 1 µM) [%] | decrease in A. fischeri bioluminescence (Aliivibrio fischeri; 10 µM) [%]
1 | F[B-]1(F)OC(/C=C/c2ccc(OCCN3CCOCC3)cc2)=CC(/C=C/c2ccc(OCCN3CCOCC3)cc2)=[O+]1 [Compound 2] | strong aggregation | 496 | 502 | 45 | negligible |  |  |  | 
2 | C[N+]1(CCOc2ccc(C=CC3=CC(C=Cc4ccc(OCC[N+]5(C)CCOCC5)cc4)=[O+][B-](F)(F)O3)cc2)CCOCC1 [Compound 3] | negligible | 489 | 495 | 99 |  | 53 | could be ecotoxic at concentrations of 10 µM and 100 µM |  | 
3 | Curcumin [reference compound] | strong aggregation | 430 | 436 |  |  |  | reveals ecotoxicity only at concentrations of 100 µM and 10 µM | 0 | 99
